{
  "source": "patent US20180179166A1",
  "about": "“SMALL MOLECULE INHIBITORS OF GP120-MEDIATED HIV INFECTION AND METHODS OF USE” (ViroCarb Inc., priority 2014, published 2018)",
  "target": "R5 gp120 (Human immunodeficiency virus type 1 group M subtype B, UniProt P35961)",
  "conditions": "CD4/CCR5 transfected U87 cells; 20 μg/mL gp120; western blot",
  "protocol": "Cell bound R5 gp120 was detected by western blot. […] Lanes 1: cells alone; Cells treated with 2: 20 μg/mL gp120; 3: 20 μg/mL gp120+20 μM adaGb Gb3; 4: 20 μg/mL gp120+50 μM ada Gb3; 5: 20 μg/mL gp120+150 μM ada Gb3; 6: 20 μg/mL gp120+5 μg/mL solCD4; 7: 20 μg/mL gp120+5 μg/mL solCD4+20 μM ada Gb3; 8: 20 μg/mL gp120+5 μg/mL solCD4+50 μM ada Gb3; 9: 20 μg/mL gp120+5 μg/mL solCD4+150 μM ada Gb3; 10: 20 μg/mL gp120+50 μM.",
  "data": [
    {"smiles": "CCCCCCCCCCCCC/C=C/[C@@H](O)[C@H](CO[C@@H]1O[C@H](CO)[C@@H](O[C@@H]2O[C@H](CO)[C@H](O[C@H]3O[C@H](CO)[C@H](O)[C@H](O)[C@H]3O)[C@H](O)[C@H]2O)[C@H](O)[C@H]1O)NC(=O)CC12CC3CC(CC(C3)C1)C2", "note": "[AdamantylGb3]", "values": [
      {"measurement": "binding of R5 gp120 to CCR5 of cells after pretreatment of gp120", "value": "reduces its binding to CCR5 of cells"}
    ]}
  ]
}
